Data set [1] is described as follows: Interaction with 1,1-diphenyl-2-picrylhydrazyl (DPPH). The note with it: 100 μΜ. As for the experimental part: To a solution of DPPH in absolute ethanol, an appropriate volume of the tested compound solution (0.1 mM final concentration) dissolved in DMSO was added. Absorbance was recorded at 517 nm after 20 and 60 min at room temperature (Lambda 20 double beam spectrophotometer, Perkin-Elmer, UK). Experiments were repeated at least in triplicate and the standard deviation of absorbance was less than 10% of the mean[10]. NDGA was used under the same experimental conditions as a reference compound.
In general terms: The DPPH test is a chemical assay of radical scavenging.

The subject of data set [2] is Candida krusei ATCC 14243. In words: Minimum biofilm eradication assay. The class given is cell-based. The conditions noted are these: Pichia kudriavzevii, ATCC14243, 48 h, read-out: MBEC. As for the experimental part:
(§1) We tested the susceptibility of different bacterial and yeast strains to compounds 5a–f by determining the minimum biofilm eradication concentration (MBEC). The test was performed in a sterile 96-well flat-bottom plastic tissue culture plate (TPP, Switzerland). Each well was filled with 100 µl of bacterial (10^7 CFUs/ml) or yeast (5 × 10^6 CFUs/ml) suspension. When the possibility of inhibition of yeast biofilm formation was tested, the wells were pre-treated with FBS (250 µl per well). Negative controls contained broth only. Positive controls were performed using standard antibacterial and antifungal drugs gentamycin and amphotericin B, respectively. The plates were covered and incubated aerobically for 24 h (bacteria) or 48 h (yeast) at 37 °C. Following the incubation period, each well was aspirated and washed three times with 250 µl of PBS and vigorously shaken in order to remove all non-adherent bacteria/yeast. The remaining attached cells were fixed with methanol (15 min) and the plates were left to dry overnight. The formed biofilm was stained with crystal violet (1%, 5 min). Excess stain was rinsed by placing the plate under running tap water and the plates were left to dry for 24 h. Adherent cells were resolubilized with acetic acid (33%, v/v). The optical density of each well was measured at 570 nm using a Multiscan plate reader. The MBEC value represents the lowest compound dilution at which microorganisms fail to grow.

In data set [3] the test system is Candida tropicalis ATCC 750. In words: Minimum biofilm eradication assay. The class given is cell-based. The conditions noted are these: ATCC750, 48 h, read-out: MBEC. As for the experimental part:
as §1

Data set [4] concerns Pseudomonas aeruginosa ATCC 27853. Briefly: Minimum biofilm eradication assay. The format is cell-based. As for the experimental part:
as §1

Data set [5] concerns Escherichia coli ATCC 8739. Briefly: Minimum biofilm eradication assay. The format is cell-based. As for the experimental part: as §1
Data set [6] deals with Candida parapsylosis ATCC 22019. In words: Minimum biofilm eradication assay. The class given is cell-based. As for the experimental part: as §1
The subject of data set [7] is Pseudomonas aeruginosa ATCC 9027. Briefly: Minimum biofilm eradication assay. The class given is cell-based. As for the experimental part: as §1
Data set [8] concerns Staphylococcus aureus ATCC 6538. Briefly: Minimum biofilm eradication assay. The format is cell-based. As for the experimental part:
as §1

The subject of data set [9] is Staphylococcus aureus ATCC 25213. Briefly: Minimum biofilm eradication assay. The format is cell-based. As for the experimental part:
as §1

Data set [10] deals with Candida albicans ATCC 90028. In words: Minimum biofilm eradication assay. The format is cell-based. The note with it: ATCC90028, 48 h, read-out: MBEC. As for the experimental part: as §1
In data set [11] the test system is Enterococcus faecalis ATCC 29212. In words: Minimum biofilm eradication assay. The format is cell-based. As for the experimental part: as §1
The test system of a further data set is Candida kefyr ATCC 2512. Briefly: Minimum biofilm eradication assay. The format is cell-based. The conditions noted are these: Kluyveromyces marxianus, ATCC2512, 48 h, read-out: MBEC. As for the experimental part:
as §1

Data set [12] has as its system Escherichia coli ATCC 10536. In words: Minimum biofilm eradication assay. The format is cell-based. As for the experimental part: as §1
Data set [13] concerns Candida albicans ATCC 10231. Briefly: Minimum biofilm eradication assay. The format is cell-based. The conditions noted are these: ATCC10231, 48 h, read-out: MBEC. As for the experimental part:
as §1

A short description of data set [14]: In vitro haemolytic activity. The class given is cell-based. The conditions noted are these: male, 4% (v/v) fresh human erythrocyte suspension, 4% human erythrocytes, read-out: Haemolysis (%). As for the experimental part: Then, 4% (v/v) of fresh human erythrocyte solution (hErc) was prepared using a PBS pH 7.0 solution. A series of diluted compounds from 200 to 50 µg/ml were prepared in a total volume of 1 ml with hErc solution. […] Absorbance of the supernatant (200 µl) was recorded at 540 nm using an iEMS microplate reader. The 0.1% (v/v) solution of Triton X100 served as a positive control (as total lysis of hErc), and intact hErc served as a negative control. […] All tests were performed in triplicate and the results were expressed as haemolysis percentage (mean ± SD). Percentage of haemolysis was calculated using the following equation: haemolysis %=Asample-Anc/Apc-Anc×100 where Asample was absorbance of the tested compound, Anc was absorbance of the negative control (intact hErc) and Apc was absorbance of the positive control treated with 0.1% TritonX100. In statistical calculations, p values below 0.05 were considered significant throughout the test. For comparison of mean values, one-way ANOVA with Dunnet’s post-test was used.

We go through 1 compound from publication PMC6021035, “Insights into biological activity of ureidoamides with primaquine and amino acid moieties” (Journal of Enzyme Inhibition and Medicinal Chemistry, 2018).

Marks after values point to notes of the source that are not given here. Where only a bound is given, the exact number is not on record here.

In the case of `COc1cc(NC(C)CCCNC(=O)NC(C(=O)NC(c2ccccc2)c2ccccc2)c2ccc(Cl)cc2)c2ncccc2c1` (stereo not drawn) [Compound 5d, 2–(4-chlorophenyl)-N-(diphenylmethyl)-2-[({4-[(6-methoxyquinolin-8-yl)amino]pentyl}carbamoyl)amino]acetamide], in [1] (20 min), the “DPPH-reducing ability 20 min” value was 1^b %. The “DPPH-reducing ability 60 min” value in [1] (60 min) is on record as 2^b %. Further, the minimal effective concentration in data set [2] is more than 100 µg/mL; in data set [3], more than 100 µg/mL; in data set [10] it was 25 µg/mL; with Candida kefyr ATCC 2512 it was 25 µg/mL; in [13] it was 50 µg/mL. Moreover, the MBEC in data set [4] is 50 µg/mL; in data set [5], 25 µg/mL; in [6] it was more than 100 µg/mL; in data set [7], 50 µg/mL; in data set [8], 25 µg/mL; in data set [9] it was 25 µg/mL. In addition, the MBEC in data set [11] was more than 100 µg/mL; in data set [12] it was 25 µg/mL. Besides, in [14] (pH 7, 50 μg/ml), the hemolysis at 1 h, 50 µg/ml is 2.56 ± 0.05%. In addition, the hemolysis at 1 h, 100 µg/ml in data set [14] (pH 7, 100 μg/ml) turned out to be 2.94 ± 0.04%. The hemolysis at 1 h, 200 µg/ml in data set [14] (pH 7, 200 μg/ml) stood at 3.07 ± 0.05%.
